The test system of assay [1] is PAXF1657 control empty vector cell line. In words: 7-day proliferation assay, PAXF1657 control empty vector cell line (Example 9). The format is cell-based. The following applies: 168 h; Cell Line: PAXF1657 empty vector (EV) cell line; 7-day; read-out: C: 7-day proliferation assay: IC50 GeoMean. The gist of the method:
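500 cells/well, RPMI1640 + 10% H.I. FBS, adhered overnight at 37° C. Compound 10-pt dilution, 30 μM-0.0002 μM final, 0.3% DMSO. 3 d, media + compound replaced, further 4 d. Viability by CellTiter-Glo; untreated plates read at time of dosing.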

The target in another assay is T1, GRK2 (Homo sapiens, UniProt P25098).
T1 construct: purchased SignalChem A14-10G
T1 sequence (P25098 1-689): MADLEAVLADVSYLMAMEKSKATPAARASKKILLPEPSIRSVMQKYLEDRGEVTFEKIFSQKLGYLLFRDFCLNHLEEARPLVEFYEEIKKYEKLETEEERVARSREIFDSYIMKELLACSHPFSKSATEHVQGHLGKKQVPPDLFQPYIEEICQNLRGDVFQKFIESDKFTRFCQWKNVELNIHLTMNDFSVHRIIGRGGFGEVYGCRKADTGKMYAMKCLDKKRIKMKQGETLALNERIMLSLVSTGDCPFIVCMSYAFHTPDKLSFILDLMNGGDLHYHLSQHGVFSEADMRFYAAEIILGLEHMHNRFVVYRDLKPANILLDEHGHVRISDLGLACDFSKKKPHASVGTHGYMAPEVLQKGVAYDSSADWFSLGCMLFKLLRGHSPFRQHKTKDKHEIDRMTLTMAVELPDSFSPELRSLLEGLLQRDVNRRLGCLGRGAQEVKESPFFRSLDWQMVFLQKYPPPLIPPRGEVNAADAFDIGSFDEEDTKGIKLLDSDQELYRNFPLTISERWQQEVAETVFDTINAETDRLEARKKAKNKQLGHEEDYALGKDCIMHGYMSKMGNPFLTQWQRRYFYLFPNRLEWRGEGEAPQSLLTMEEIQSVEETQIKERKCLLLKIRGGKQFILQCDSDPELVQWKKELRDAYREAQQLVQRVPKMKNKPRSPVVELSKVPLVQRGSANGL
In words: ADPGlo GRK2 Inhibition Assay (Example 8). The assay is classed as biochemical. The settings on record: ADPGlo GRK2 enzyme assay; read-out: A: Enzymatic GRK2: IC50 (nM) (Example 8). In outline: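 GRK2 (15 nM 2× enzyme solution) was preincubated 15 min with compound, then reacted 180 min at room temperature with 2× mix of 20 μM ATP plus GRKtide in HEPES pH 7.5, MgCl2, Tween-20, DTT. ADP was detected by ADP-Glo luminescence. Percent inhibition was normalised to enzyme and no-enzyme controls, with dose-response curves from threefold dilutions starting at 100 μM.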

As for `Cn1c(CNc2cccc(C(=O)NCc3cncc4c3CCC4)c2)nnc1-c1ccncn1`, the IC50 in assay [1] is over 11700 nM; at GRK2, 15.3 nM.

Consider `Cn1c(CNc2cccc(C(=O)NCc3ccccc3OCCO)c2)nnc1-c1ccncn1`, for which the IC50 in assay [1] is over 6450 nM; on GRK2 it was 48.9 nM.

`Cn1c(CNc2cccc(C(=O)N[C@H](CO)c3cc(F)ccc3F)c2)nnc1-c1ccncn1`: the IC50 in assay [1] was over 30000 nM; at GRK2, 43.4 nM.

Consider `COc1ccccc1C(CO)NC(=O)c1cccc(NCc2nnc(-c3ccncn3)n2C)c1` (stereo not shown), for which the figures for the IC50 (in assay [1]; at GRK2) were over 13000 nM and 45.4 nM, respectively.

Take `Cn1c(CNc2cccc(C(=O)NC(CO)c3ccc(F)cc3F)c2)nnc1-c1ccncn1` (stereo not shown): the IC50 in assay [1] came out at 3070 nM; at GRK2, 83.1 nM.

Take `Cn1c(CNc2cccc(C(=O)NC(CCO)c3ccccc3F)c2)nnc1-c1ccncn1` (stereo not shown): the figures for the IC50 (in assay [1]; at GRK2) were 536 nM and 35.6 nM, respectively.

With `Cn1c(CNc2cccc(C(=O)NCc3ccccc3S(C)(=O)=O)c2)nnc1-c1ccncn1`, the IC50 in assay [1] is 1950 nM; on GRK2, 57.1 nM.

As for `COc1ccc(CNC(=O)c2cccc(NCc3nnc(-c4ccncn4)n3C)c2)c(OC)n1`, the IC50 was 797 nM in assay [1] and 37.2 nM at GRK2.

Consider `Cn1c(CNc2cccc(C(=O)NC3C(=O)NCc4ccccc43)c2)nnc1-c1ccncn1` (stereo not shown), for which the IC50 was over 30000 nM in assay [1] and 38.1 nM on GRK2.

As for `Cn1c(CNc2cccc(C(=O)NCc3cc(S(C)(=O)=O)ccc3F)c2)nnc1-c1ccncn1`, the IC50 in assay [1] is over 16000 nM; at GRK2, 52 nM.

With `Cc1nccn1-c1ncccc1CNC(=O)c1cccc(NCc2nnc(-c3ccncn3)n2C)c1`, the figures for the IC50 (in assay [1]; on GRK2) were over 25800 nM and 58.8 nM, respectively.

As to `Cn1c(CNc2cccc(C(=O)NCc3ccccc3N3CCOCC3)c2)nnc1-c1ccncn1`, the figures for the IC50 (in assay [1]; at GRK2) were 3250 nM and 50 nM, respectively.

For the compound `Cn1c(CNc2cccc(C(=O)NCc3c(F)cccc3NS(C)(=O)=O)c2)nnc1-c1ccncn1`, the IC50 in assay [1] amounted to 3250 nM; at GRK2, 9.42 nM.

With `CC(C)NS(=O)(=O)c1ccccc1CNC(=O)c1cccc(NCc2nnc(-c3ccncn3)n2C)c1`, the IC50 in assay [1] is over 15900 nM; on GRK2, 65.8 nM.

For `Cn1c(CNc2cccc(C(=O)NCc3ccccc3S(=O)(=O)NC(C)(C)C)c2)nnc1-c1ccncn1`, the IC50 in assay [1] turned out to be 4290 nM; at GRK2, 54 nM.

Take `Cn1c(CNc2cccc(C(=O)NCc3ccncc3Br)c2)nnc1-c1ccncn1`: the figures for the IC50 (in assay [1]; at GRK2) were 633 nM and 13.8 nM, respectively.

Regarding `Cn1c(CNc2cccc(C(=O)NCc3ccccc3CO)c2)nnc1-c1ccncn1`, the IC50 in assay [1] is 1560 nM; on GRK2 it was 18.4 nM.

`Cc1ccnc(CNC(=O)c2cccc(NCc3nnc(-c4ccncn4)n3C)c2)c1F`: the IC50 in assay [1] was over 30000 nM; on GRK2, 50.2 nM.

For `COc1ccncc1CNC(=O)c1cccc(NCc2nnc(-c3ccncn3)n2C)c1`, the IC50 in assay [1] came out at 5090 nM; at GRK2, 28.1 nM.

With `CCc1cccnc1CNC(=O)c1cccc(NCc2nnc(-c3ccncn3)n2C)c1`, the IC50 in assay [1] amounted to 4510 nM; at GRK2, 22.6 nM.

For the compound `CN(C)c1ncccc1CNC(=O)c1cccc(NCc2nnc(-c3ccncn3)n2C)c1`, the IC50 came to 1160 nM in assay [1] and 46.1 nM at GRK2.

With `COc1nccc(C)c1CNC(=O)c1cccc(NCc2nnc(-c3ccncn3)n2C)c1`, the IC50 is 930 nM in assay [1] and 37.3 nM on GRK2.

Take `COc1ccc(CNC(=O)c2cccc(NCc3nnc(-c4ccncn4)n3C)c2)c(C)n1`: the IC50 in assay [1] is over 30000 nM; on GRK2 it was 28.5 nM.

Regarding `COc1ccccc1C(C#N)NC(=O)c1cccc(NCc2nnc(-c3ccncn3)n2C)c1` (stereo not shown), the results for the IC50 (in assay [1]; at GRK2) were 468 nM and 6.03 nM, respectively.

As to `Cn1c(CNc2cccc(C(=O)NC3CS(=O)(=O)c4ccccc43)c2)nnc1-c1ccncn1` (stereo not shown), the IC50 in assay [1] was determined as 1440 nM; on GRK2, 20.2 nM.

For the compound `CN1Cc2ccccc2C(NC(=O)c2cccc(NCc3nnc(-c4ccncn4)n3C)c2)C1` (stereo not shown), the IC50 in assay [1] came to 7670 nM; on GRK2, 45.9 nM.

In the case of `Cn1c(CNc2cccc(C(=O)NCc3c(F)ccc4[nH]cnc34)c2)nnc1-c1ccncn1`, the IC50 in assay [1] turned out to be 22600 nM; at GRK2, 19.2 nM.

As for `Cn1c(CNc2cccc(C(=O)NCc3ccccc3-n3ccnc3)c2)nnc1-c1ccncn1`, the IC50 in assay [1] stood at 1150 nM; at GRK2 it was 30 nM.

As to `CN(C)S(=O)(=O)c1ccccc1CNC(=O)c1cccc(NCc2nnc(-c3ccncn3)n2C)c1`, the values for the IC50 (in assay [1]; on GRK2) were 21500 nM and 47.2 nM, respectively.

With `Cn1c(CNc2cccc(C(=O)NCc3ccccc3Cn3cncn3)c2)nnc1-c1ccncn1`, the IC50 in assay [1] stood at 7410 nM; on GRK2 it was 55.7 nM.

For the compound `CCC(NC(=O)c1cccc(NCc2nnc(-c3ccncn3)n2C)c1)c1ccccc1OCC(=O)NC` (stereo not shown), the figures for the IC50 (in assay [1]; at GRK2) were over 27800 nM and 67.2 nM, respectively.

Turning to `Cn1c(CNc2cccc(C(=O)NCc3ccncc3-c3cc[nH]n3)c2)nnc1-c1ccncn1`, the IC50 is over 23300 nM in assay [1] and 53.5 nM on GRK2.

Consider `Cn1c(CNc2cccc(C(=O)NCc3cccnc3OC(F)F)c2)nnc1-c1ccncn1`, for which the IC50 in assay [1] stood at 1440 nM; at GRK2, 16.7 nM.

Turning to `Cc1ncncc1[C@@H](C)NC(=O)c1cccc(NCc2nnc(-c3ccncn3)n2C)c1`, the IC50 in assay [1] is over 30000 nM; on GRK2, 15.5 nM.

With `Cn1c(CNc2cccc(C(=O)NC3CC(=O)c4ccccc43)c2)nnc1-c1ccncn1` (stereo not shown), the IC50 in assay [1] was determined as 867 nM; at GRK2, 19 nM.

Regarding `Cn1c(CNc2cccc(C(=O)NC3CCOc4ncccc43)c2)nnc1-c1ccncn1` (stereo not shown), the IC50 in assay [1] is over 30000 nM; on GRK2 it was 56.7 nM.

Consider `Cc1cc(C)c(CNC(=O)c2cccc(NCc3nnc(-c4ccncn4)n3C)c2)c(=O)[nH]1`, for which the IC50 in assay [1] was over 30000 nM; at GRK2, 14.9 nM.

Consider `Cc1cc(CO)cc(C)c1CNC(=O)c1cccc(NCc2nnc(-c3ccncn3)n2C)c1`, for which the IC50 was 738 nM in assay [1] and 10.8 nM on GRK2.

As for `Cc1ccc(C)c(CNC(=O)c2cccc(NCc3nnc(-c4ccncn4)n3C)c2)n1`, the results for the IC50 (in assay [1]; on GRK2) were over 30000 nM and 11.2 nM, respectively.

As to `Cn1c(CNc2cccc(C(=O)NCc3cccc4c3CCNC4)c2)nnc1-c1ccncn1`, the IC50 in assay [1] was over 30000 nM; on GRK2 it was 18.4 nM.

Turning to `Cn1c(CNc2cccc(C(=O)NCc3cccc4c3CCOC4)c2)nnc1-c1ccncn1`, the IC50 was over 30000 nM in assay [1] and 8.5 nM on GRK2.

In the case of `Cn1c(CNc2cccc(C(=O)NCc3ccccc3CN3CCOCC3)c2)nnc1-c1ccncn1`, the values for the IC50 (in assay [1]; at GRK2) were 6710 nM and 71.5 nM, respectively.

Take `CN(C)CCNc1ccccc1CNC(=O)c1cccc(NCc2nnc(-c3ccncn3)n2C)c1`: the figures for the IC50 (in assay [1]; at GRK2) were over 30000 nM and 53.3 nM, respectively.

With `Cn1c(CNc2cccc(C(=O)NCc3ccccc3NS(C)(=O)=O)c2)nnc1-c1ccncn1`, the IC50 in assay [1] was over 30000 nM; on GRK2, 32.1 nM.

`CN(CCO)S(=O)(=O)c1ccccc1CNC(=O)c1cccc(NCc2nnc(-c3ccncn3)n2C)c1`: the values for the IC50 (in assay [1]; on GRK2) were over 11800 nM and 42 nM, respectively.

On to `CNc1ncccc1CNC(=O)c1cccc(NCc2nnc(-c3ccncn3)n2C)c1`, for which the IC50 in assay [1] came out at 1630 nM; on GRK2 it was 18.3 nM.

Consider `Cn1c(CNc2cccc(C(=O)NCc3ncccc3Cl)c2)nnc1-c1ccncn1`, for which the values for the IC50 (in assay [1]; on GRK2) were over 16400 nM and 48.2 nM, respectively.
